According to US8895037B2, “Administation of ellagic acid for the treatment of canities” (L'Oreal, priority 2006, dated 2014):

Columns and labels:
[1] = test system: normal human melanocytes (NHMs); assay: Accelerated senescence induced in vitro by a chronic H2O2 stress, viability by Alamar Blue; assay type: cell-based; conditions: for % relative to the control / average fluorescence: Alamar Blue on D7
Method: 1-C-1. Protocol for accelerated senescence induced in vitro by a chronic H2O2 stress:
(According to O. Toussaint, E. E. Medrano and T. von Zglinicki, Experimental Gerontology 2000, 35, 927-945).
The normal human melanocytes (NHMs) were inoculated at D0 at the density of 0.8×10^4 cells/cm^2. After adhesion of the cells (3 h) the active agent studied was added to the culture medium. H2O2 (250 μM) was added to the culture medium over 1 hour, at D1, D2 and D3. In addition, the culture medium was renewed every two days without addition of stress. On D7, the number of viable cells was measured using Alamar Blue (UP669413 UPTIMA, Interchim) according to the instructions of the supplier.

[2] = test system: normal human melanocytes (NHMs); assay: Reactive oxygen species (ROS) generated by an H2O2 stress in cultured normal human melanocytes; assay type: cell-based; conditions: NHM pretreated 12 h/18 h, 250 μM H2O2, fluorescence after 15 min; FIG. 1
Method: 1-A-1. Protocol for measuring the reactive oxygen species (ROS) generated by an H2O2 stress in cultured normal human melanocytes (NHMs) The normal human melanocytes (NHMs) were inoculated at D0 at the density of 4×10^4 cells/cm^2. At D1, the culture medium was replaced with the 10 μM solution of 6-carboxy-2',7'-dichlorodihydrofluorescein diacetate, di[acetoxymethyl ester] in PBS (H2DCFDA, C2938, Molecular Probes). After 20 min the H2DCFDA solution was replaced with the culture medium. The NHMs were left for 30 min before adding the H2O2 solution (250 μM). The fluorescence was measured after 15 min in a fluoroscan (excitation: 485 nm, emission: 538 nm). The compounds studied were used depending on their properties (concentration, preincubation time). N-Acetylcysteine ([…], Sigma) was used as a reference molecule. The melanocytes were pretreated, 12 h/18 h at 37° C., with the compound studied in the culture medium, before being brought into contact for 20 minutes with H2DCFDA (10 μM in PBS). […] The fluorescence was measured after 15 min in a fluoroscan (excitation: 485 nm, emission: 538 nm). The results represent the crude fluorescence data, from which the autofluorescence values of “blank” cells, expressed in fluorescence units (fu), obtained during a representative experiment, have been deducted.

[3] = (no treatment, NAC, EA), chronic H2O2 250 μM at D1, D2, D3

Compound	% relative to the control ([1]; (Control, NAC, EA)) [%]	average fluorescence ([1]; (Control, NAC, EA))	% relative to the control [1, 3] [%]	average fluorescence [1, 3]	reactive oxygen species induced by H2O2 (fluorescence, H2DCFDA) [2]	viability after accelerated senescence induced by chronic H2O2 stress ([1]; NHM, H2O2 250 μM at D1, D2, D3, read on D7, FIG. 3)
CC(=O)N[C@@H](CS)C(=O)O [NAC, N-Acetylcysteine, reference compound]	106	8056.00	38	2869.00	–	–
O=c1oc2c(O)c(O)cc3c(=O)oc4c(O)c(O)cc1c4c23 [ellagic acid, 2,3,7,8-tetrahydroxy(1)benzopyrano(5,4,3-CDE)(1)benzopyran-5,10-dione]	97	7343.67	39	2934.00	decrease of the reactive oxygen species	significant increase in viability
